Among the data in ChEMBL document CHEMBL1909046, “DrugMatrix in vitro pharmacology data” are IC50 and Ki values, retold here.

Data set [1] is described as follows: DRUGMATRIX: Interleukin IL-1 radioligand binding (ligand: [125I] interleukin 1beta). It counts as cell membranes, Membrane. The conditions noted are these: nih3t3; Not Active = under 50% inhibition at 10 µM.
For data set [2], the target named is Beta-1 adrenergic receptor (Homo sapiens, UniProt P08588). Description: DRUGMATRIX: Adrenergic beta1 radioligand binding (ligand: [125I] Cyanopindolol). It counts as cell membranes, CHO-K1, Membrane. Conditions: Not Active = under 50% inhibition at 10 µM.
The target of data set [3] is T1, 5-hydroxytryptamine receptor 2C (Homo sapiens, UniProt P28335).
T1 sequence (P28335 whole entry): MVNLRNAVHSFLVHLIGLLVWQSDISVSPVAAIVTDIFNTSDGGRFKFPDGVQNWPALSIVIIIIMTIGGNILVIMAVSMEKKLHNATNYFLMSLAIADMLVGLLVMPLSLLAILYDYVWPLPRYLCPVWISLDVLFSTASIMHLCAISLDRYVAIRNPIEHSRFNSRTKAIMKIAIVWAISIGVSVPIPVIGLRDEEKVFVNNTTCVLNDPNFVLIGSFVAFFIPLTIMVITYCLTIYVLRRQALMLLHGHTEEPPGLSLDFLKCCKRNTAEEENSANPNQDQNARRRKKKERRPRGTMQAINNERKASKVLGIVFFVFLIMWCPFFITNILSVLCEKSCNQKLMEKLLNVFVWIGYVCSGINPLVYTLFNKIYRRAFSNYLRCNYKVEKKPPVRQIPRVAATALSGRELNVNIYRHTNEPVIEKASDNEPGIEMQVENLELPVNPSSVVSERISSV
Description: DRUGMATRIX: Serotonin (5-Hydroxytryptamine) 5-HT2C radioligand binding (ligand: [3H] Mesulergine). It counts as cell membranes, CHO-K1, Membrane. Conditions: Not Active = under 50% inhibition at 10 µM.

Another data set addresses T2, Thromboxane-A synthase (Homo sapiens, UniProt P24557).
T2 sequence (P24557 whole entry): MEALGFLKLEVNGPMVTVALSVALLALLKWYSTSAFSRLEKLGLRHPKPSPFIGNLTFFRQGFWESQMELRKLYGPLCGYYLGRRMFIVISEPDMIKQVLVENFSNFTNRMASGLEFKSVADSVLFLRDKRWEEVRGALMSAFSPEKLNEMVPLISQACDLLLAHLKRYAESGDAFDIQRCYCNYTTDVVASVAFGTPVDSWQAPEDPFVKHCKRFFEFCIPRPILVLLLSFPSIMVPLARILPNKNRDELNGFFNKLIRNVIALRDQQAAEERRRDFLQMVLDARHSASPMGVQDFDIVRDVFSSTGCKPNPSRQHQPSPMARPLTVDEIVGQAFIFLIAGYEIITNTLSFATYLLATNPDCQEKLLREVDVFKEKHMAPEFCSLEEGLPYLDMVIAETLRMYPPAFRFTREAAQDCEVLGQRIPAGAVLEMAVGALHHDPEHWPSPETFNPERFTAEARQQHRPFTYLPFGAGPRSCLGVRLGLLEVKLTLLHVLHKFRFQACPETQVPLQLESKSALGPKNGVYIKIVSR
Kind of data set: biochemical. Conditions: platelet. Format: tissue-based, Platelet.

For the next data set, the target named is Cytochrome P450 2C9 (Homo sapiens, UniProt P11712). Conditions: bti-tn-5b1-4. Note: in other assays of this panel Not Active means under 50% inhibition at 10 µM.
Data set [4] deals with T3, Type-2 angiotensin II receptor (Homo sapiens, UniProt P50052).
T3 sequence (P50052 whole entry): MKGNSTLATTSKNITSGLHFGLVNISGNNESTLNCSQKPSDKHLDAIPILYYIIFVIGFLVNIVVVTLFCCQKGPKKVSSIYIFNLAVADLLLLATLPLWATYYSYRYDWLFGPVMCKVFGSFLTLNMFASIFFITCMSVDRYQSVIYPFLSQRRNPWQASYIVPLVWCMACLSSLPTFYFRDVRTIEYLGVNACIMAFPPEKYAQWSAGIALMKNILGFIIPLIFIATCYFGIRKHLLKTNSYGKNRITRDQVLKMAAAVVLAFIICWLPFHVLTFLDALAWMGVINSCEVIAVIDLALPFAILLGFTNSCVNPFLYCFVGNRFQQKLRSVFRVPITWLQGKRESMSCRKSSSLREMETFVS
Format: cell-based. Conditions: cho-k1.

The target of another data set is T4, Calcitonin receptor (Homo sapiens, UniProt P30988). Note: in other assays of this panel Not Active means under 50% inhibition at 10 µM.
T4 sequence (P30988 whole entry): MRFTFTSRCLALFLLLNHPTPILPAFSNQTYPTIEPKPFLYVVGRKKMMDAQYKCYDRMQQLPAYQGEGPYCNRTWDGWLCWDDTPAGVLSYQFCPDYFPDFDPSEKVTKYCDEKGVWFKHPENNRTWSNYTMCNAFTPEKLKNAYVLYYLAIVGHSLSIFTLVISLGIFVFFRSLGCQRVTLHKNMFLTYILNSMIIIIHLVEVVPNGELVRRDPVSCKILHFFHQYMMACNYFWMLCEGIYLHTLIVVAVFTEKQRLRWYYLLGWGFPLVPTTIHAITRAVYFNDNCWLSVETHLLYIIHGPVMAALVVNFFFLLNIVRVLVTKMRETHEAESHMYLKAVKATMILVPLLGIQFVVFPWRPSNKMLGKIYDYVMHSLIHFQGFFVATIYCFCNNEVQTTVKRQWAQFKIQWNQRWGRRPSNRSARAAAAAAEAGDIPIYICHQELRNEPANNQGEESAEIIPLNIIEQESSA
It counts as cell membranes, Membrane. Conditions: t47d.

Data set [5] can be described thus: DRUGMATRIX: Phorbol Ester radioligand binding (ligand: [3H] PDBu). It counts as cell membranes, Mus musculus, ICR, Brain, Membrane. The conditions noted are these: Not Active = under 50% inhibition at 10 µM.

Chain of Beta-1 adrenergic receptor (P08588 whole entry): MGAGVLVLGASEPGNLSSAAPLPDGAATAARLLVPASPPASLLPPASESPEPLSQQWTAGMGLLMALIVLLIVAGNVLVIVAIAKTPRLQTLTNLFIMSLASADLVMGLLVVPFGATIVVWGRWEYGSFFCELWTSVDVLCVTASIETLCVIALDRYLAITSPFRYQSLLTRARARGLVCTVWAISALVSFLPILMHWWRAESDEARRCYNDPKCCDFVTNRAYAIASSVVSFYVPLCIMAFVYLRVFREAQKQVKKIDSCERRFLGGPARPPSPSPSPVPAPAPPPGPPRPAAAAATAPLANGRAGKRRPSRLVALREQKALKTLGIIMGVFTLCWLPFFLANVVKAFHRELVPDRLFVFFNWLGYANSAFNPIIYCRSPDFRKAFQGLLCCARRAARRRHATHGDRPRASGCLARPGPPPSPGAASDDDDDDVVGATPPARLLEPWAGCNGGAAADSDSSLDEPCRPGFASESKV
Chain of Cytochrome P450 2C9 (P11712 whole entry): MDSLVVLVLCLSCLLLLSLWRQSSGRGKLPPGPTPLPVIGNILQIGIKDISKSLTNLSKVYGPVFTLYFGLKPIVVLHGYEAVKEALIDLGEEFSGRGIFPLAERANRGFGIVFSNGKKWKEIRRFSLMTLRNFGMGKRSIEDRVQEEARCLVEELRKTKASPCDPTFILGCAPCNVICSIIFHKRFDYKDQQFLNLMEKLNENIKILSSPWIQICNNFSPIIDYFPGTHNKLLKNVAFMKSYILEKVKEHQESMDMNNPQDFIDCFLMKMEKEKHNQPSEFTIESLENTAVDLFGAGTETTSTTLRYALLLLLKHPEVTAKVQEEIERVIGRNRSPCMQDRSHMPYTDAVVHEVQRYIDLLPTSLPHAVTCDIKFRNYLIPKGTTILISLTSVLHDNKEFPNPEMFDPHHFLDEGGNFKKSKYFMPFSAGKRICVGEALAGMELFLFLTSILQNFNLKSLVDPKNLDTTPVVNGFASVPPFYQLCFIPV

Consider `CC(C)(C)c1ccc(S(=O)(=O)/C=C/C#N)cc1` [BAY-11-7085], for which the IC50 entry (in data set [1]; in data set [2] (cho-k1); in data set [3] (cho-k1); on Thromboxane-A synthase; at Cytochrome P450 2C9; in data set [4]) was “Not Active” in each case. Further, the IC50 entry (at Calcitonin receptor; in data set [5]) was “Not Active” each time. Further, the inhibition constant (Ki) entry (in data set [1]; at Cytochrome P450 2C9; in data set [5]) was “Not Active” each time.
Turning to `O=c1cc(-c2ccccc2)oc2ccc3ccccc3c12` [BETA-NAPHTHOFLAVONE], the IC50 entry (in data set [1]; in data set [2] (cho-k1); in data set [3] (cho-k1); against Thromboxane-A synthase; against Cytochrome P450 2C9; in data set [4]) was “Not Active” throughout. In addition, the IC50 entry (on Calcitonin receptor; in data set [5]) was “Not Active” throughout. In addition, the Ki entry (in data set [1]; at Cytochrome P450 2C9; in data set [5]) was “Not Active” each time.
Regarding `CC(C)C[C@H]1C(=O)N2CCC[C@H]2[C@]2(O)O[C@](NC(=O)[C@@H]3C=C4c5cccc6[nH]c(Br)c(c56)C[C@H]4N(C)C3)(C(C)C)C(=O)N12` [BROMOCRIPTINE], the IC50 entry in data set [1] is “Not Active”; in data set [2] (read-out: IC50), 2400 nM; in data set [3] (read-out: IC50) it was 532 nM; against Thromboxane-A synthase, “Not Active”; against Cytochrome P450 2C9, “Not Active”; in data set [4], “Not Active”. Besides, the IC50 entry (at Calcitonin receptor; in data set [5]) was “Not Active” throughout. Besides, the Ki entry is “Not Active” in data set [1]; 1390 nM in data set [2] (read-out: Ki); 278 nM in data set [3] (read-out: Ki); “Not Active” at Cytochrome P450 2C9; “Not Active” in data set [5].
For the molecule `CS(=O)(=O)OCCCCOS(C)(=O)=O` [BUSULFAN], the concentration for half-maximal inhibition (IC50) entry (in data set [1]; in data set [2] (cho-k1); in data set [3] (cho-k1); against Thromboxane-A synthase; at Cytochrome P450 2C9; in data set [4]) was “Not Active” throughout. Further, the IC50 result (at Calcitonin receptor; in data set [5]) was “Not Active” throughout. Moreover, the Ki entry (in data set [1]; at Cytochrome P450 2C9; in data set [5]) was “Not Active” throughout.
On to `O=C(/C=C/c1ccc(O)c(O)c1)OCCc1ccccc1` [CAFFEIC ACID PHENETHYL ESTER], for which the concentration for half-maximal inhibition (IC50) result (in data set [1]; in data set [2] (cho-k1); in data set [3] (cho-k1); against Thromboxane-A synthase; against Cytochrome P450 2C9; in data set [4]) was “Not Active” throughout. In addition, the IC50 entry (on Calcitonin receptor; in data set [5]) was “Not Active” throughout. In addition, the Ki result (in data set [1]; on Cytochrome P450 2C9; in data set [5]) was “Not Active” throughout.
Take `COc1cc(CNC(=O)CCCC/C=C/C(C)C)ccc1O` [CAPSAICIN]: the concentration for half-maximal inhibition (IC50) entry (in data set [1]; in data set [2] (cho-k1); in data set [3] (cho-k1); against Thromboxane-A synthase; against Cytochrome P450 2C9; in data set [4]) was “Not Active” throughout. For the same molecule, the IC50 result (at Calcitonin receptor; in data set [5]) was “Not Active” throughout. Further, the Ki result (in data set [1]; at Cytochrome P450 2C9; in data set [5]) was “Not Active” throughout.
Turning to `NC(=O)N1c2ccccc2C=Cc2ccccc21` [CARBAMAZEPINE], the IC50 result (in data set [1]; in data set [2] (cho-k1); in data set [3] (cho-k1); against Thromboxane-A synthase; at Cytochrome P450 2C9; in data set [4]) was “Not Active” in each case. The IC50 entry (on Calcitonin receptor; in data set [5]) was “Not Active” each time. In addition, the Ki result (in data set [1]; on Cytochrome P450 2C9; in data set [5]) was “Not Active” each time.
As for `CCOC(=O)n1ccn(C)c1=S` [CARBIMAZOLE], the half-inhibitory concentration (IC50) entry (in data set [1]; in data set [2] (cho-k1); in data set [3] (cho-k1); against Thromboxane-A synthase; against Cytochrome P450 2C9; in data set [4]) was “Not Active” in each case. Further, the half-maximal inhibitory concentration (IC50) result (on Calcitonin receptor; in data set [5]) was “Not Active” each time. Also, the inhibition constant (Ki) entry (in data set [1]; at Cytochrome P450 2C9; in data set [5]) was “Not Active” throughout.
In the case of `Oc1ccccc1O` [CATECHOL], the half-inhibitory concentration (IC50) result (in data set [1]; in data set [2] (cho-k1); in data set [3] (cho-k1); on Thromboxane-A synthase; against Cytochrome P450 2C9; in data set [4]) was “Not Active” each time. Also, the concentration for half-maximal inhibition (IC50) entry (at Calcitonin receptor; in data set [5]) was “Not Active” throughout. The inhibition constant Ki entry (in data set [1]; on Cytochrome P450 2C9; in data set [5]) was “Not Active” each time.
Turning to `CO[C@@]1(NC(=O)CSCC#N)C(=O)N2C(C(=O)O)=C(CSc3nnnn3C)CS[C@@H]21` [CEFMETAZOLE], the IC50 result (in data set [1]; in data set [2] (cho-k1); in data set [3] (cho-k1); on Thromboxane-A synthase; against Cytochrome P450 2C9; in data set [4]) was “Not Active” each time. Moreover, the IC50 result (on Calcitonin receptor; in data set [5]) was “Not Active” each time. The Ki result (in data set [1]; at Cytochrome P450 2C9; in data set [5]) was “Not Active” in each case.
With `CN(C(=O)CCCOc1ccc2[nH]c(=O)ccc2c1)C1CCCCC1` [CILOSTAMIDE], the IC50 entry (in data set [1]; in data set [2] (cho-k1); in data set [3] (cho-k1); against Thromboxane-A synthase; against Cytochrome P450 2C9; in data set [4]) was “Not Active” in each case. Moreover, the IC50 result (on Calcitonin receptor; in data set [5]) was “Not Active” in each case. Further, the Ki result (in data set [1]; on Cytochrome P450 2C9; in data set [5]) was “Not Active” throughout.
Take `CC(C)(Oc1ccc(C2CC2(Cl)Cl)cc1)C(=O)O` (stereo not given) [CIPROFIBRATE]: the IC50 result (in data set [1]; in data set [2] (cho-k1); in data set [3] (cho-k1); at Thromboxane-A synthase; against Cytochrome P450 2C9; in data set [4]) was “Not Active” each time. Moreover, the IC50 result (on Calcitonin receptor; in data set [5]) was “Not Active” each time. Also, the inhibition constant (Ki) result (in data set [1]; on Cytochrome P450 2C9; in data set [5]) was “Not Active” each time.
`Nc1nc(Cl)nc2c1ncn2[C@H]1C[C@H](O)[C@@H](CO)O1` [CLADRIBINE]: the half-maximal inhibitory concentration (IC50) entry (in data set [1]; in data set [2] (cho-k1); in data set [3] (cho-k1); against Thromboxane-A synthase; against Cytochrome P450 2C9; in data set [4]) was “Not Active” in each case. Besides, the IC50 entry (at Calcitonin receptor; in data set [5]) was “Not Active” throughout. Also, the inhibitory constant (Ki) entry (in data set [1]; on Cytochrome P450 2C9; in data set [5]) was “Not Active” throughout.

Broadly, the IC50 is the concentration needed to halve the response being measured. What is called Ki is the equilibrium dissociation constant of an inhibitor or competing ligand from its target.
